In publication PMC11489133, “Obicetrapib exhibits favorable physiochemical and pharmacokinetic properties compared to previous cholesteryl ester transfer protein inhibitors: An integrated summary of results from non‐human primate studies and clinical trials” (Pharmacology Research & Perspectives, 2024):
Where two headings read alike, the source gives them in different places.

What was measured:
Format in all cases: in vivo, humans
[1] = ROSE Phase II trial, plasma concentrations of obicetrapib; conditions: for % Change in Plasma Level: Week 8 to Week 23, mean (SD); for concentration at 8 weeks / concentration at 23 weeks: both sexes, human, plasma, oral, read-out: Mean (SD) Plasma Level; for concentration at 8 weeks: Week 8 (EOT); for concentration at 23 weeks: Week 23, fifteen weeks after the end of treatment
Experimental: (§1) The PK parameters and the effect of food on the bioavailability of obicetrapib in humans have been examined in both Phase I[9] (TA‐8995‐09 CSR, NewAmsterdam Pharma) and Phase II trials.[10], [11], [12], [13] The trials were performed in accordance with the Declaration of Helsinki, Good Clinical Practice Guidelines, and applicable regulatory requirements. Approval was obtained from the relevant ethical review boards for each site. All volunteers provided written informed consent prior to participation. PK parameters were determined using WinNonlin software, version 4.1 or higher (Pharsight/Certara Corporation, USA). Concentrations of obicetrapib were summarized for each treatment group using descriptive statistics.
ROSE (NCT04753606) was a placebo‐controlled, double‐blind, randomized trial conducted to evaluate the efficacy of obicetrapib as an adjunct to high‐intensity statin therapy for reducing LDL‐C and ApoB levels.[11] A secondary endpoint of the trial included assessing plasma concentrations of obicetrapib during and after the end of treatment. […] One hundred twenty participants (mean age: 61.8 years; 55.8% male; 76.7% White; mean BMI: 31.1 kg/m^2) were enrolled at 17 clinical research sites in the United States and randomized in a 1:1:1 ratio to one of three treatment groups: (1) placebo; (2) 5 mg obicetrapib; or (3) 10 mg obicetrapib. The participants were instructed to take their assigned treatment orally with food once daily at approximately the same time each morning for the 8‐week treatment period. After randomization, participants returned to the clinical research site during Weeks 4 and 8 (end of treatment) for PK assessments. Additionally, participants completed follow‐up visits at four, eight, and 15 weeks after the end of treatment (Weeks 12, 16, and 23) for PK assessments. Of the 120 participants randomized in ROSE, 119 (99.2%) completed treatment; all 120 participants randomized were included in the modified Intent‐to‐Treat (mITT) analysis. The PK population (n = 80) included all randomized participants in the mITT population assigned to the two obicetrapib dose groups who had sufficient blood samples collected for valid estimation of PK parameters. Seventy‐seven (96.3%), 79 (98.8%), and 79 (98.8%) participants in the PK population for ROSE were included in the 4‐, 8‐, and 15‐week post‐end of treatment PK analyses, respectively (TA‐8995‐201 CSR, NewAmsterdam Pharma).

[2] = TA‐8995‐203 Phase II trial in Japanese participants, plasma concentrations of obicetrapib; conditions: for Mean (SD) Plasma Level / concentration at 8 weeks: Week 8 (EOT), Japanese participants; for % Change in Plasma Level: Week 8 to Week 12, mean (SD); for concentration at 8 weeks / concentration at 12 weeks: both sexes, human, plasma, oral, read-out: Mean (SD) Plasma Level; for concentration at 12 weeks: Week 12, four weeks after the end of treatment
Experimental: as §1
This Phase II trial (NCT05421078) was designed to evaluate the efficacy, safety, and tolerability of obicetrapib as an adjunct to stable statin therapy in Japanese participants with LDL‐C >70 mg/dL, or non‐HDL‐C >100 mg/dL, and triglyceride levels <400 mg/dL.[13] Eligible participants were receiving either atorvastatin 10 or 20 mg or rosuvastatin 5 or 10 mg for at least 8 weeks prior to screening and continued statin therapy throughout the treatment period. One hundred two participants (mean age: 64.8 years; 71.6% male; mean BMI: 25.6 kg/m^2) were enrolled at nine clinical research sites in Japan and randomized to one of four treatment groups in a 1:1:1:1 ratio: 1) placebo; 2) 2.5 mg obicetrapib; 3) 5 mg obicetrapib; or 4) 10 mg obicetrapib.
The participants were instructed to take their assigned treatment orally once daily at approximately the same time each morning for the 8‐week treatment period. After randomization, participants returned to the clinical research site during Weeks 2, 4, and 8 (end of treatment) for PK assessments. Participants also completed a follow‐up visit 4 weeks after the end of treatment (Week 12) for a final PK assessment. All of the participants who were randomized completed the treatment and were included in the primary analysis. The PK population included all randomized participants in the mITT population assigned to the three obicetrapib dose groups who had sufficient blood samples collected for valid estimation of PK parameters; 76 (100%) participants in the PK population were included in the 4‐week post‐end of treatment PK analysis (TA‐8995‐203 CSR, NewAmsterdam Pharma).

[3] = ROSE2 Phase II trial, plasma concentrations of obicetrapib; conditions: for % Change in Plasma Level: Week 12 to Week 16, mean (SD); for concentration at 12 weeks / concentration at 16 weeks: both sexes, human, plasma, oral, read-out: Mean (SD) Plasma Level; for concentration at 12 weeks: Week 12 (EOT), on‐treatment PK population; for concentration at 16 weeks: Week 16, four weeks after the end of treatment
Experimental: as §1
ROSE2 (NCT05266586) was a placebo‐controlled, double‐blind, randomized trial conducted to evaluate the efficacy, safety, and tolerability of obicetrapib or obicetrapib plus ezetimibe as an adjunct to high‐intensity statin therapy.[12] An exploratory endpoint of the trial included assessing the plasma concentrations of obicetrapib during treatment and 4 weeks after the end of treatment. […] One hundred nineteen participants (mean age: 62.6 years; 63.9% male; 84.5% White; mean BMI: 30.9 kg/m^2) were enrolled at 18 clinical research sites in the United States and randomized in a 1:1:1 ratio to one of three treatment groups: (1) placebo; (2) obicetrapib monotherapy (one 10 mg obicetrapib tablet plus one placebo capsule for ezetimibe); or (3) combination therapy (one 10 mg obicetrapib tablet plus one 10 mg ezetimibe capsule). The participants were instructed to take their assigned treatment orally with water once daily at approximately the same time each morning for the 12‐week treatment period. After randomization, participants returned to the clinical research site during Weeks 4 and 12 (end of treatment) for safety and PK assessments. Participants also completed a follow‐up visit 4 weeks after the end of treatment (Week 16) for final safety and PK assessments. Of the 119 participants randomized, 97 (81.5%) were included in an on‐treatment analysis, which excluded participants with plasma concentrations of obicetrapib <100 ng/mL at either or both Week 4 and Week 12.[12] The on‐treatment PK population (n = 57) included all randomized participants in the mITT population assigned to the two obicetrapib dose groups who had sufficient blood samples collected for valid estimation of PK parameters and excluded participants with plasma concentrations of obicetrapib <100 ng/mL at either or both Week 4 and Week 12. Fifty‐six (98.2%) participants in the on‐treatment PK population were included in the 4‐week post‐end of treatment PK analysis (TA‐8995‐202 CSR, NewAmsterdam Pharma).

[4] = Obicetrapib 5 mg + high‐intensity statin
[5] = Obicetrapib 10 mg + high‐intensity statin
[6] = Obicetrapib 2.5 mg + stable statin therapy
[7] = Obicetrapib 5 mg + stable statin therapy
[8] = Obicetrapib 10 mg + stable statin therapy
[9] = Obicetrapib 10 mg + ezetimibe 10 mg + high‐intensity statin

**Q.** With CCOC(=O)N1c2ccc(C(F)(F)F)cc2C(N(Cc2cc(C(F)(F)F)cc(C(F)(F)F)c2)c2ncc(OCCCC(=O)O)cn2)CC1CC (stereo not shown) [Obicetrapib] as the compound, how does the “% Change in Plasma Level” value [1, 4] read?
**A.** The value was −98.5 (1.7) %.

**Q.** What about the “% Change in Plasma Level” value ([1]; Obicetrapib 5 mg + high‐intensity statin, listed as obicetrapib) of the same compound?
**A.** The value was −98.5%.

**Q.** What about the “% Change in Plasma Level” value [1, 5] of the same compound?
**A.** The value was −98.4 (1.9) %.

**Q.** And the concentration at 8 weeks [1, 4]?
**A.** Its concentration at 8 weeks is 254 ng/mL.

**Q.** And the concentration at 23 weeks [1, 4]?
**A.** Its concentration at 23 weeks is 2.9 ng/mL.

**Q.** And the concentration at 8 weeks [1, 5]?
**A.** Its concentration at 8 weeks is 395 ng/mL.

**Q.** What about the concentration at 23 weeks [1, 5] of the same compound?
**A.** The concentration at 23 weeks was 5.6 ng/mL.

**Q.** And the “Mean (SD) Plasma Level” value [2, 6]?
**A.** Its value is 194.5 (42.7) ng/mL.

**Q.** What about the “% Change in Plasma Level” value [2, 6] of the same compound?
**A.** The value was −93.4 (2.6) %.

**Q.** What about the “% Change in Plasma Level” value ([2]; Obicetrapib 2.5 mg + stable statin therapy, listed as obicetrapib) of the same compound?
**A.** Its value is −93.4%.

**Q.** What about the “% Change in Plasma Level” value [2, 7] of the same compound?
**A.** The value was −93.5 (3.4) %.

**Q.** And the “% Change in Plasma Level” value ([2]; Obicetrapib 5 mg + stable statin therapy, listed as obicetrapib)?
**A.** The value was −93.5%.

**Q.** What about the “Mean (SD) Plasma Level” value [2, 8] of the same compound?
**A.** Its value is 506.3 (237.5) ng/mL.

**Q.** And the “% Change in Plasma Level” value [2, 8]?
**A.** Its value is −95.2 (2.3) %.

**Q.** And the “% Change in Plasma Level” value ([2]; Obicetrapib 10 mg + stable statin therapy, listed as obicetrapib)?
**A.** Its value is −95.2%.

**Q.** And the concentration at 8 weeks ([2]; 2.5 mg, Obicetrapib 2.5 mg + stable statin therapy)?
**A.** Its concentration at 8 weeks is 194 ng/mL.

**Q.** What about the concentration at 8 weeks ([2]; 10 mg, Obicetrapib 10 mg + stable statin therapy) of the same compound?
**A.** The concentration at 8 weeks was 506 ng/mL.

**Q.** What about the concentration at 12 weeks [2, 6] of the same compound?
**A.** Its concentration at 12 weeks is 13.2 ng/mL.

**Q.** What about the concentration at 8 weeks [2, 7] of the same compound?
**A.** The concentration at 8 weeks was 362 ng/mL.

**Q.** And the concentration at 12 weeks [2, 7]?
**A.** The concentration at 12 weeks was 24.6 ng/mL.

**Q.** And the concentration at 12 weeks [2, 8]?
**A.** Its concentration at 12 weeks is 27.6 ng/mL.

**Q.** And the “% Change in Plasma Level” value [3, 9]?
**A.** The value was −92.2 (3.7) %.

**Q.** And the “% Change in Plasma Level” value [3, 5]?
**A.** Its value is −93.7 (3.3) %.

**Q.** And the “% Change in Plasma Level” value ([3]; Obicetrapib 10 mg + high‐intensity statin, listed as obicetrapib)?
**A.** The value was −93.7%.

**Q.** And the concentration at 12 weeks [3, 9]?
**A.** The concentration at 12 weeks was 360 ng/mL.

**Q.** And the concentration at 16 weeks [3, 9]?
**A.** The concentration at 16 weeks was 28.7 ng/mL.

**Q.** What about the concentration at 12 weeks [3, 5] of the same compound?
**A.** The concentration at 12 weeks was 387 ng/mL.

**Q.** And the concentration at 16 weeks [3, 5]?
**A.** Its concentration at 16 weeks is 24.5 ng/mL.
